Consider one compound from patent US4690823A, “Ibuprofen-containing soft gelatin capsules and process for preparing same” (Dolorgiet Beteiligungs-GmbH, priority 1984, dated 1987).

This series in a line: Precipitation of ibuprofen from solution on contact with aqueous medium / artificial gastric juice or on cooling. Particulars: addition of small amounts of water, or aqueous medium such as artificial gastric juice. In kind it is physicochemical. The text has this:
It is an object of the present invention to provide a medicament that can be readily taken that contains an active amount of ibuprofen in a carrier, that is simple to prepare and that will quickly display a high activity. […] When such a solution, upon oral administration, gets into the stomach, then the aqueous content of the stomach causes the ibuprofen to be precipitated so that it will be barred from a quick resorption. […] In addition, these solutions may be incorporated in soft gelatin capsules in a per se known manner. The latter dosage form has an advantage over all other previously known dosage forms for ibuprofen that upon intake the active ingredient is quickly resorbed. To this effect it is not necessary that, subsequent to synthesis, the active ingredient is subjected to expensive galenic processing measures. […] In order to dissolve ibuprofen in the solvents according to the invention, the solvents are heated at 45° C. to 65° C., since only at these temperatures the dissolution will take place sufficiently fast. Upon cooling to room temperature, no reprecipitation occurs. […] It is readily possible that 40 parts by weight are additionally suspended in said solutions at room temperature and thereafter incorporated in soft gelatin capsules. […]

Each structure is given as a SMILES string.

For `CC(C)Cc1ccc(C(C)C(=O)O)cc1` (stereo not shown) [Ibuprofen, 2-(4-isobutylphenyl)propionic acid], the “precipitation on contact with aqueous medium (in words)” value is given as “will immediately precipitate upon the addition of small amounts of water”.
